In brackets after ≈: the same amount, converted by molar mass. Where a SMILES comes first, the peptide text is derived from it.
Assays:
[1] = system: C. albicans ATCC 10231 biofilm; assay type: cell-based, Candida albicans; conditions: ATCC 10231, 24 h
Description: (§1) The minimum inhibitory concentrations (MICs) of test compounds were assessed by broth microdilution method on 96-well plates, according to the guidelines of Clinical and Laboratory Standards Institute (CLSI). For this purpose, reference strains of bacteria: S. aureus ATCC 25923, E. faecalis PCM 2673, E. coli ATCC 25922, and P. aeruginosa ATCC 9027; and fungus: C. albicans ATCC 10231 were used (The Polish Collection of Microorganism, Polish Academy of Sciences, Wrocław, Poland). Bacteria at initial inoculums of 0.5 × 10^5 CFU/mL in Mueller Hinton Broth (MHB), and fungi at initial inoculums of 2 × 10^3 CFU/mL in RPMI-1640, were exposed to the compounds over the concentration range of 1–512 μg/mL. The polystyrene plates were incubated at 37 °C for 18 h with bacteria and for 24 h with C. albicans. The MIC was taken as the lowest concentration at which a noticeable growth of microorganisms was inhibited. Minimum biofilm eradication concentrations (MBECs) were determined using a previously described protocol. For this purpose, 96-well polystyrene flat-bottom plates and a resazurin (7-hydroxy-3H-phenoxazin-3-one 10-oxide) were used. In this assay, a specific feature of resazurin is utilized, which upon the contact with living cells is metabolized and reduced from the basic blue form to pink resorufin. Briefly, 24-h cultures of microorganisms were diluted 1,000-fold and 100 μL of that suspension was added into the test plates. After 24 h of incubation at 37 °C, the wells of the plates were rinsed three times with phosphate buffer saline (PBS) to remove non-adherent cells. Subsequently, 100 μL of test compounds in concentration range (diluted in appropriate media) were added to each well. After 24 h of incubation at 37 °C, 20 μL of the resazurin (4 mg/mL) was added. The MBEC was read after 1 h. Additionally, anti-adhesive properties of the compounds were also analyzed. The assay was conducted on 96-well polystyrene flat-bottom plates. The preparation of inoculums was followed by a 500-fold dilution of 24-h cultures of microorganisms. Briefly, to evaluate the effect of the peptides in preventing biofilm formation, 50 μL of compounds in concentration range, diluted in appropriate medium, were prepared. Subsequently, the 50 μL of the bacterial/fungal inoculums were added to reach the same microbial density as that in MBEC assay. After 24 h of incubation at 37 °C, the wells were rinsed three times with PBS and the fresh media with resazurin (0.6 mg/mL) were added. Then, after 1 h of incubation, the minimum biofilm inhibitory concentrations (MBIC) were read. MBECs as well as MBICs were determined as the lowest concentration at which the reduction of resazurin was lower or equal (10% ± 0.5%) as compared to positive (100%) and negative (0%) controls. All experiments were performed in triplicate.

[2] = system: C. albicans ATCC 10231 biofilm formation; assay type: cell-based, Candida albicans; conditions: ATCC 10231, 24 h
Description: as §1

C. albicans ATCC 10231 = assay type: cell-based, Candida albicans; conditions: ATCC 10231, 24 h
Description: as §1

[3] = system: human red blood cells (RBCs); experiment: Hemolysis assay; assay type: cell-based; conditions: red cells of human, 1 h
Description: The hemolytic activity of the peptides was determined using fresh human red blood cells (RBCs) collected from a healthy human donor according to the procedure described in the literature. Fresh RBCs with EDTA as anticoagulant were rinsed three times with a PBS by centrifugation at 800×g for 10 min and resuspension in PBS. Serial dilution of the peptides in PBS (1–256 μg/mL) on 96-well polystyrene plates was prepared and the stock solution of RBCs was added up to a final volume of 100 μL with a 4% concentration of erythrocytes (v/v). The control wells for 0 and 100% hemolysis contained of RBCs suspended in PBS and 1% of Triton-X 100, respectively. Subsequently, the plates were incubated for 1 h at 37 °C and then centrifuged at 800×g for 10 min at 4 °C (Sorvall ST 16R Centrifuge, Thermo Scientific). After centrifugation, the supernatant was carefully […] to new microtiter plates and the release of hemoglobin was measured at 540 nm (Multiskan™ GO Microplate Spectrophotometer, Thermo Scientific). All experiments were conducted in triplicate.

in vitro = in vitro ADME; conditions: bovine, serum
Description: To assess serum stability, the peptides (0.5 mg) were dissolved in 4 mL of 25% (v/v) fetal bovine serum (FBS) in PBS and incubated at 37 °C. The aliquots of 100 μL of the test samples were transferred to 96-well polystyrene plates in triplicate for each time point. Samples were quenched at zero time (t0) and after 6 h of incubation at 37 °C by addition of 100 μL of ice-cold acetonitrile and stored at 4 °C for 10 min. Afterwards, the samples were centrifuged at 13,000×g for 20 min at 4 °C and diluted 1:1 with HPLC-grade water. All samples were analyzed using the Waters Alliance e2695 system with Waters Acquity QDa Detector (software–Empower®3). Analyses were conducted on an Agilent Zorbax SB-C18 RP-18 column (4.6 × 50 mm, 1.8-μm particle size, 80-Å pore size) using a linear 30–60% acetonitrile (B) gradient in deionized water (A) over 6 min at 25.0 ± 0.1 °C, at a flow rate of 0.5 mL/min and MS working in selected ion recording (SIR) mode (A—0.1% aqueous formic acid (FA) and B—0.1% FA in acetonitrile). The percentage of peptide remaining intact was calculated from peak areas of samples at t0 and after 6 h of incubation in serum (the % of remaining peptide = peak area after 6 h/peak area at t0). The mass-to-charge ratios selected for SIR mode were based on values obtained from full spectrum analysis of each peptide and are presented in Table 1.

[4] = system: E. faecalis PCM 2673 biofilm formation; assay type: cell-based, Enterococcus faecalis; conditions: 24 h
Description: as §1

[5] = system: E. faecalis PCM 2673 biofilm; assay type: cell-based, Enterococcus faecalis; conditions: 24 h
Description: as §1

E. faecalis PCM 2673 = assay type: cell-based, Enterococcus faecalis; conditions: PCM 2673, 18 h
Description: as §1

[6] = system: E. coli ATCC 25922 biofilm formation; assay type: cell-based, Escherichia coli; conditions: ATCC 25922, 24 h
Description: as §1

[7] = system: E. coli ATCC 25922 biofilm; assay type: cell-based, Escherichia coli; conditions: ATCC 25922, 24 h
Description: as §1

E. coli ATCC 25922 = assay type: cell-based, Escherichia coli; conditions: ATCC 25922, 18 h
Description: as §1

[8] = system: P. aeruginosa ATCC 9027 biofilm; assay type: cell-based, Pseudomonas aeruginosa; conditions: ATCC 9027, 24 h
Description: as §1

P. aeruginosa ATCC 9027 = assay type: cell-based, Pseudomonas aeruginosa; conditions: ATCC 9027, 18 h
Description: as §1

[9] = system: P. aeruginosa ATCC 9027 biofilm formation; assay type: cell-based, Pseudomonas aeruginosa; conditions: ATCC 9027, 24 h
Description: as §1

[10] = system: S. aureus ATCC 25923 biofilm; assay type: cell-based, Staphylococcus aureus; conditions: ATCC 25923, 24 h
Description: as §1

S. aureus ATCC 25923 = assay type: cell-based, Staphylococcus aureus; conditions: ATCC 25923, 18 h
Description: as §1

[11] = system: S. aureus ATCC 25923 biofilm formation; assay type: cell-based, Staphylococcus aureus; conditions: ATCC 25923, 24 h
Description: as §1

Row | Compound | MBEC, C. albicans ATCC 10231 [1] [µg/mL] | MBIC, C. albicans ATCC 10231 [2] [µg/mL] | MIC, C. albicans ATCC 10231 (C. albicans ATCC 10231) [µg/mL] | Percentage of hemolysis at 1 μg/mL [3] [%] | Percentage of hemolysis at 2 μg/mL [3] [%] | Percentage of hemolysis at 4 μg/mL [3] [%] | Percentage of hemolysis at 8 μg/mL [3] [%] | Percentage of hemolysis at 16 μg/mL [3] [%] | Percentage of hemolysis at 32 μg/mL [3] [%] | Percentage of hemolysis at 64 μg/mL [3] [%] | Percentage of hemolysis at 128 μg/mL [3] [%] | Percentage of hemolysis at 256 μg/mL [3] [%] | remaining at 6 h, 0.125 mg/mL (in vitro) [%] | MBIC, E. faecalis PCM 2673 [4] [µg/mL] | MBEC, E. faecalis PCM 2673 [5] [µg/mL] | MIC, E. faecalis PCM 2673 (E. faecalis PCM 2673) [µg/mL] | MBIC, E. coli ATCC 25922 [6] [µg/mL] | MBEC, E. coli ATCC 25922 [7] [µg/mL] | MIC, E. coli ATCC 25922 (E. coli ATCC 25922) [µg/mL] | MBEC, P. aeruginosa ATCC 9027 [8] [µg/mL] | further results
1 | CC[C@H](C)[C@H](NC(=O)[C@H](CCCCN)NC(=O)[C@H](CCCCN)NC(=O)[C@@H](NC(=O)[C@@H](NC(=O)[C@H](CC(=O)O)NC(=O)[C@H](Cc1ccccc1)NC(=O)[C@H](CC(C)C)NC(=O)[C@H](C)N)[C@@H](C)CC)[C@@H](C)CC)C(=O)N[C@@H](C)C(=O)N[C@@H](CCC(=O)O)C(=O)N[C@@H](CO)C(=O)N[C@@H](Cc1ccccc1)C(N)=O [Peptide G1A] (H-ALFDIIKKIAESF-NH2) | > 512 | 4 | 128 (≈ 85.7 µM) | 0.0 | 0.0 | 0.0 | 0.0 | 0.0 | 0.0 | 0.0 | 0.3 | 4.2 | 16 | 256 | > 512 | 128 (≈ 85.7 µM) | 128 | 256 | 128 (≈ 85.7 µM) | 512 | MIC, P. aeruginosa ATCC 9027 (P. aeruginosa ATCC 9027): 512 µg/mL (≈ 343 µM); MBIC, P. aeruginosa ATCC 9027 [9]: 256 µg/mL; MBEC, S. aureus ATCC 25923 [10]: 512 µg/mL; MIC, S. aureus ATCC 25923 (S. aureus ATCC 25923): 512 µg/mL (≈ 343 µM); MBIC, S. aureus ATCC 25923 [11]: 512 µg/mL
2 | CC[C@H](C)[C@H](NC(=O)[C@H](CC(=O)O)NC(=O)[C@H](Cc1ccccc1)NC(=O)[C@H](CC(C)C)NC(=O)CN)C(=O)N[C@H](C(=O)N[C@@H](CCCCN)C(=O)N[C@@H](CCCCN)C(=O)N[C@@H](C)C(=O)N[C@@H](C)C(=O)N[C@@H](CCC(=O)O)C(=O)N[C@@H](CO)C(=O)N[C@@H](Cc1ccccc1)C(N)=O)[C@@H](C)CC [Peptide I9A] (H-GLFDIIKKAAESF-NH2) | > 512 | 16 | 512 (≈ 356 µM) | 0.6 | 0.6 | 0.3 | 0.1 | 0.0 | 0.0 | 0.0 | 0.0 | 0.0 | 6 | > 512 | > 512 | 128 (≈ 89 µM) | >512 | > 512 | 512 (≈ 356 µM) | > 512 | MIC, P. aeruginosa ATCC 9027 (P. aeruginosa ATCC 9027): > 512 µg/mL; MBIC, P. aeruginosa ATCC 9027 [9]: > 512 µg/mL; MBEC, S. aureus ATCC 25923 [10]: > 512 µg/mL; MIC, S. aureus ATCC 25923 (S. aureus ATCC 25923): > 512 µg/mL; MBIC, S. aureus ATCC 25923 [11]: > 512 µg/mL

From publication PMC6695355, “Alanine Scanning Studies of the Antimicrobial Peptide Aurein 1.2” (Probiotics and Antimicrobial Proteins, 2018)
